Data reported in patent US20220105150A1, “AMPHIPATHIC ALPHA-HELICAL ANTIMICROBIAL PEPTIDES TREAT INFECTIONS BY GRAM-NEGATIVE PATHOGENS” (priority 2019, published 2022).
In brackets after ≈: the same amount, converted by molar mass. Like-named read-outs stand apart in the source and are kept apart here. Square brackets hold non-standard residues; d marks the D form. Peptide text beside a SMILES is read from it.

What was measured:
[1] = system: Acinetobacter baumannii strains resistant to Polymyxin B and Colistin; settings: results provided by MERCK, cited from earlier work
[2] = system: A. baumannii strains from JMI Laboratories; settings: 20 A. baumannii isolates from JMI Laboratories; cited from earlier work
[3] = system: Acinetobacter baumannii strains resistant to Polymyxin B and Colistin; settings: strains resistant to Polymyxin B and Colistin, 24 h
Excerpt: The coupling procedure used 5 equivalents of Fmoc-D-amino acid or Fmoc-L-amino acid and HCTU (O-(1H-6-chlorobenzotriazole-1-yl)-1,1,3,3-tetramethyluronium hexafluorophosphate) and 6-Cl-HOBt (1-hydroxy-6-chloro-benztriazole) at 4.5 equivalents in DMF (Fisher Scientific, Denver, Colo.) and N-diisopropylethylamine (DIPEA) 10 equivalents (Oakwood Products, Inc., Estill, S.C.) in N-methyl-2-pyrrolidinone (NMP) (Fisher Scientific, Denver, Colo.) with the first and second couplings at room temperature for 30 min each. The deprotection procedure (removal of Fmoc protecting group) was carried out by treatment of the resin with 0.1 M HOBt (1-hydroxybenzotriazole) in DMF with 20% piperidine for 30 min. […] The resin was removed by filtration and peptide was precipitated with ice-cooled ethyl ether on ice for 15 min. Ether was decanted, the peptide was washed twice with ether and redissolved in acetonitrile/water (1:1, with 0.2% TFA) and the solution lyophilized to obtain the crude peptide. • Analytical and Preparative Purification by Reversed-Phase Chromatography: Analytical RP-HPLC: Column, Luna C18 (2), 250×4.6 mm I.D., 5 μm particle size, 100 Å pore size from Phenomenex (Torrance, Calif.). Run conditions: linear AB gradient (1% acetonitrile/min, starting from 2% acetonitrile) at a flow-rate of 1 ml/min, where eluent A is 0.2% aq. TFA and eluent B is 0.18% TFA in acetonitrile; temperature, 30° C. Preparative RP-HPLC: Peptides were dissolved in 0.2% aq. TFA containing 2% acetonitrile to a final concentration of 10 mg/ml. Following filtration through a 0.45 μm Millipore filter and subsequently through a 0.22 μm filter, the peptide solutions were loaded onto the column via multiple 20-ml injections into a 20-ml injection loop at a flow-rate of 10 ml/min. Column, Luna C18 (2), 250×30 mm I.D., 5 um particle size, 100 Å pore size from Phenomenex. Run conditions: 2% acetonitrile/min gradient up to an acetonitrile concentration 10% below that required to elute the peptide during analytical RP-HPLC, then shallow gradient elution (0.05% or 0.1% acetonitrile/min depending on the complexity of impurities near the product of interest on the analytical run of the crude peptide) at a flow-rate of 10 ml/min (same eluents as shown above for analytical RP-HPLC); at room temperature. • Temperature Profiling of Peptides on Reversed-phase HPLC to Measure Dimerization and Oligomerization: Purified peptides were analyzed on an Agilent 1200 series liquid chromatograph for temperature profiling using a Zorbax 300 SB-C8 column (150 mm×2.1 mm I.D.; 5 μm particle size, 300 Å pore size) from Agilent Technologies. […] Temperature profiling was carried out on peptide mixtures run at each temperature in 2° C. increments from 5° C. to 41° C. and 10° C. increments from 5° C. to 75° C. Twenty minutes was allowed between runs for temperature equilibration. • Characterization of Helical Structure: The mean residue molar ellipticities of peptides were determined by circular dichroism (CD) spectroscopy, using a Jasco J-815 spectropolarimeter (Jasco Inc. Easton, Md., USA) at 5° C. under KP buffer (50 mM NaH2PO4/Na2HPO4/100 mM KCl, pH 7.0) as well as in the presence of an α-helix inducing solvent, 2,2,2-trifluoroethanol, TFE, (50 mM NaH2PO4/Na2HPO4/100 mM KCl, pH 7.0 buffer/50% TFE). A 10-fold dilution of an approximately 500 μM stock solution of the peptide analogs was loaded into a 0.1 cm quartz cell and its ellipticity scanned from 195 to 250 nm.

[4] = system: Acinetobacter baumannii isolates resistant to classical antibiotics; format: cell-based; settings: isolates resistant to classical antibiotics
Excerpt: Thus, shortening the number of carbon atoms between the side-chain amino group and the α-carbon atom from four (Lys) to one (diaminopropionic acid) had very little effect on antibacterial activity (Table 2). We also determined the antibacterial activity of our five AMPs against 20 additional Acinetobacter baumannii isolates from four continents, 12 different countries and 17 different cities that were resistant to 18 different antibiotics. […] Thus, it is very clear that changing the type of positively-charged residue on the polar face of these AMPs had very little effect on the antibacterial activities.

Polymyxin B
MICGM ([1]; geometric mean over seven strains): >25 µM
MIC MB9941 ([1]; strain MB9941): >25 µM
MIC MB9949 ([1]; strain MB9949): >25 µM
MIC MB9951 ([1]; strain MB9951): >25 µM
MIC MB9952 ([1]; strain MB9952): >25 µM
MIC MB9953 ([1]; strain MB9953): >25 µM
MIC MB9955 ([1]; strain MB9955): >25 µM
MIC MB9963 ([1]; strain MB9963): >25 µM

Piperacillin-tazobactam
number of resistant isolates out of the number of isolates screened [2]: 19/20

O=C(O)c1cn(C2CC2)c2cc(N3CCNCC3)c(F)cc2c1=O [Ciprofloxacin]
number of resistant isolates out of the number of isolates screened [2]: 15/20

C[C@H]1[C@H](NC(=O)/C(=N\OC(C)(C)C(=O)O)c2csc(N)n2)C(=O)N1S(=O)(=O)O [Aztreonam]
number of resistant isolates out of the number of isolates screened [2]: 20/20

Ceftazidime-avibactam
number of resistant isolates out of the number of isolates screened [2]: 17/20

CC(=O)N[C@H](CCCCN)C(=O)N[C@H](CC(C)C)C(=O)N[C@H](CCCCN)C(=O)N[C@H](CO)C(=O)N[C@H](CC(C)C)C(=O)N[C@H](CC(C)C)C(=O)N[C@H](CCCCN)C(=O)N[C@@H](C(=O)N[C@H](CC(C)C)C(=O)N[C@H](CO)C(=O)N[C@H](CCCCN)C(=O)N[C@H](C)C(=O)N[C@H](CCCCN)C(=O)N[C@H](C)C(=O)N[C@H](C)C(=O)N[C@H](CCCCN)C(=O)N[C@H](CC(C)C)C(=O)N[C@H](CCCCN)C(=O)N[C@@H](C(=O)N[C@H](CC(C)C)C(=O)N[C@H](CC(C)C)C(=O)N[C@H](CCCCN)C(=O)N[C@H](C)C(=O)N[C@H](CC(C)C)C(=O)N[C@H](CO)C(=O)N[C@H](CO)C(N)=O)[C@H](C)O)[C@H](C)O [D101(Lys^1Ser^26-5Lys-1), Ac-KL(Lys)SLL(Lys)TLS(Lys)AKAAKL(Lys)TLL(Lys)ALS(Ser)-amide]
MIC MB9941 [3]: 0.7 µM (≈ 1.98 µg/mL)
MIC MB9949 [3]: 0.7 µM (≈ 1.98 µg/mL)
MIC MB9951 [3]: 0.7 µM (≈ 1.98 µg/mL)
MIC MB9952 [3]: 0.7 µM (≈ 1.98 µg/mL)
MIC MB9953 [3]: 1.5 µM (≈ 4.24 µg/mL)
MIC MB9955 [3]: 0.7 µM (≈ 1.98 µg/mL)
MIC MB9963 [3]: 0.7 µM (≈ 1.98 µg/mL)
MIC 101887 [4]: 1.4 µM (≈ 3.95 µg/mL)
MIC 961997 [4]: 1.4 µM (≈ 3.95 µg/mL)
MIC 963618 [4]: 0.7 µM (≈ 1.98 µg/mL)
MIC 964304 [4]: 1.4 µM (≈ 3.95 µg/mL)
MIC 977751 [4]: 0.7 µM (≈ 1.98 µg/mL)
MIC 981653 [4]: 0.7 µM (≈ 1.98 µg/mL)
MIC 1002956 [4]: 0.7 µM (≈ 1.98 µg/mL)
MIC 1007660 [4]: 0.7 µM (≈ 1.98 µg/mL)
MIC 1010282 [4]: 1.4 µM (≈ 3.95 µg/mL)
MIC 1035166 [4]: 1.4 µM (≈ 3.95 µg/mL)

NC[C@H]1O[C@H](O[C@H]2[C@H](O)[C@@H](O[C@H]3O[C@H](CO)[C@@H](O)[C@H](N)[C@H]3O)[C@H](N)C[C@@H]2N)[C@H](N)C[C@@H]1O [Tobramycin]
number of resistant isolates out of the number of isolates screened [2]: 18/20

C[C@@H](O)[C@H]1C(=O)N2C(C(=O)O)=C(S[C@@H]3CN[C@H](C(=O)N(C)C)C3)[C@H](C)[C@H]12 [Meropenem]
number of resistant isolates out of the number of isolates screened [2]: 17/20

CO/N=C(\C(=O)N[C@@H]1C(=O)N2C(C(=O)[O-])=C(C[N+]3(C)CCCC3)CS[C@H]12)c1csc(N)n1 [Cefepime]
number of resistant isolates out of the number of isolates screened [2]: 18/20

NCC[C@H](O)C(=O)N[C@@H]1C[C@H](N)[C@@H](O[C@H]2O[C@H](CN)[C@@H](O)[C@H](O)[C@H]2O)[C@H](O)[C@H]1O[C@H]1O[C@H](CO)[C@@H](O)[C@H](N)[C@H]1O [Amikacin]
number of resistant isolates out of the number of isolates screened [2]: 17/20

C[C@@H](O)[C@H]1C(=O)N2C(C(=O)O)=C(S[C@@H]3CN[C@H](CNS(N)(=O)=O)C3)[C@H](C)[C@H]12 [Doripenem]
number of resistant isolates out of the number of isolates screened [2]: 17/20

CC(=O)N[C@H](CCCCN)C(=O)N[C@H](CC(C)C)C(=O)N[C@H](CCCCN)C(=O)N[C@H](CO)C(=O)N[C@H](CC(C)C)C(=O)N[C@H](CC(C)C)C(=O)N[C@H](CCCCN)C(=O)N[C@@H](C(=O)N[C@H](CC(C)C)C(=O)N[C@H](CO)C(=O)N[C@H](CCCCN)C(=O)N[C@H](C)C(=O)N[C@H](CCCCN)C(=O)N[C@H](C)C(=O)N[C@H](C)C(=O)N[C@H](CCCCN)C(=O)N[C@H](CC(C)C)C(=O)N[C@H](CCCCN)C(=O)N[C@@H](C(=O)N[C@H](CC(C)C)C(=O)N[C@H](CC(C)C)C(=O)N[C@H](CCCCN)C(=O)N[C@H](C)C(=O)N[C@H](CC(C)C)C(=O)N[C@H](CO)C(=O)N[C@H](CCCCN)C(N)=O)[C@H](C)O)[C@H](C)O [D84(Lys^1-6Lys-1), Ac-KL(Lys)SLL(Lys)TLS(Lys)AKAAKL(Lys)TLL(Lys)ALS(Lys)-amide]
MIC MB9941 [3]: 0.3 µM (≈ 0.86 µg/mL)
MIC MB9949 [3]: 0.7 µM (≈ 2.01 µg/mL)
MIC MB9951 [3]: 0.3 µM (≈ 0.86 µg/mL)
MIC MB9952 [3]: 0.7 µM (≈ 2.01 µg/mL)
MIC MB9953 [3]: 0.7 µM (≈ 2.01 µg/mL)
MIC MB9955 [3]: 0.3 µM (≈ 0.86 µg/mL)
MIC MB9963 [3]: 0.7 µM (≈ 2.01 µg/mL)
MIC 101887 [4]: 0.7 µM (≈ 2.01 µg/mL)
MIC 961997 [4]: 1.4 µM (≈ 4.01 µg/mL)
MIC 963618 [4]: 0.7 µM (≈ 2.01 µg/mL)
MIC 964304 [4]: 1.4 µM (≈ 4.01 µg/mL)
MIC 977751 [4]: 0.3 µM (≈ 0.86 µg/mL)
MIC 981653 [4]: 0.7 µM (≈ 2.01 µg/mL)
MIC 1002956 [4]: 0.3 µM (≈ 0.86 µg/mL)
MIC 1007660 [4]: 0.3 µM (≈ 0.86 µg/mL)
MIC 1010282 [4]: 0.7 µM (≈ 2.01 µg/mL)
MIC 1035166 [4]: 0.7 µM (≈ 2.01 µg/mL)

CC(C)(O/N=C(\C(=O)N[C@@H]1C(=O)N2C(C(=O)[O-])=C(C[n+]3ccccc3)CS[C@H]12)c1csc(N)n1)C(=O)O [Ceftazidime]
number of resistant isolates out of the number of isolates screened [2]: 17/20

CC(=O)N[C@H](CCCCN)C(=O)N[C@H](CC(C)C)C(=O)N[C@H](CCCCN)C(=O)N[C@H](CO)C(=O)N[C@H](CC(C)C)C(=O)N[C@H](CC(C)C)C(=O)N[C@H](CCCCN)C(=O)N[C@@H](C(=O)N[C@H](CC(C)C)C(=O)N[C@H](CO)C(=O)N[C@H](C)C(=O)N[C@H](C)C(=O)N[C@H](CCCCN)C(=O)N[C@H](CCCCN)C(=O)N[C@H](CCCCN)C(=O)N[C@H](CCCCN)C(=O)N[C@H](CC(C)C)C(=O)N[C@H](C)C(=O)N[C@@H](C(=O)N[C@H](CC(C)C)C(=O)N[C@H](CC(C)C)C(=O)N[C@H](CCCCN)C(=O)N[C@H](C)C(=O)N[C@H](CC(C)C)C(=O)N[C@H](CO)C(=O)N[C@H](CCCCN)C(N)=O)[C@H](C)O)[C@H](C)O [D88(Lys^1-6 Lys-2), Ac-KL(Lys)SLL(Lys)TLSAAK(Lys)(Lys)KLATLL(Lys)ALS(Lys)-amide] (Ac-[dK][dL][dK][dS][dL][dL][dK][dT][dL][dS][dA][dA][dK][dK][dK][dK][dL][dA][dT][dL][dL][dK][dA][dL][dS][dK]-NH2)
MIC MB9941 [3]: 0.7 µM (≈ 2.01 µg/mL)
MIC MB9949 [3]: 0.7 µM (≈ 2.01 µg/mL)
MIC MB9951 [3]: 0.3 µM (≈ 0.86 µg/mL)
MIC MB9952 [3]: 0.3 µM (≈ 0.86 µg/mL)
MIC MB9953 [3]: 0.3 µM (≈ 0.86 µg/mL)
MIC MB9955 [3]: 0.3 µM (≈ 0.86 µg/mL)
MIC MB9963 [3]: 0.4 µM (≈ 1.15 µg/mL)
